Patent US9738677B2, “Amphotericin B derivative with reduced toxicity” (priority 2014, dated 2017)
“Also recorded” adds a separate entry of the source.

Columns and labels:
[1] = tested on: primary human renal proximal tubule epithelial cells; experiment: WST-8 cell proliferation assay (MTC); format: cell-based; conditions: up to limits of solubility
Method: WST-8 Cell Proliferation Assays
Primary human renal proximal tubule epithelial cells (RPTECs) were purchased from ATCC (Manassas, Va.) and immediately cultured upon receipt. Complete growth media was prepared using renal epithelial cell basal medium (ATCC, PCS-400-030), renal epithelial cell growth kit (ATCC, PCS-400-040), and penicillin-streptomycin (10 units/mL and 10 μg/mL). Complete media was stored at 4° C. in the dark and used within 28 days. Primary RPTECs were grown in CO2 incubator at 37° C. with an atmosphere of 95% air/5% CO2.
WST-8 cell proliferation assay kit (Ser. No. 10/010,199) was purchased from Cayman Chemical Company (Ann Arbor, Mich.) and stored at −20° C. and used within 6 months of receipt. WST-8 reagent and electron mediator solution were thawed and mixed to prepare the WST-8 reagent solution. The solution was stored at −20° C. and used within one week.
A suspension of primary RPTECs in complete growth media was brought to a concentration of 1×10^5 cells/mL. A 96-well plate was seeded with 99 μL of the cell suspension and incubated at 37° C. with an atmosphere of 95% air/5% CO2 for 3 hours. Positive and negative controls were prepared by seeding with 100 μL of the cell suspension or 100 μL of the complete media. Compounds were prepared as 5 mM (AmB), 20 mM (C2′deOAmB), and 50 mM (C2′epiAmB) stock solutions in DMSO and serially diluted to the following concentrations with DMSO: 50000, 40000, 30000, 20000, 10000, 8000, 6000, 4000, 3000, 2000, 1500, 1000, 800, 600, 400, 300, 200, 100, 50, 25, 10, 5, 2.5, 1, 0.5, 0.25, and 0.1 μM. 1 μL aliquots of each solution were added to the 96-well plate in triplicate, with each column representing a different concentration of the test compound. The 96-well plate was incubated at 37° C. with an atmosphere of 95% air/5% CO2 for 24 hours. […] Following incubation, the 96-well plate was mixed in a shaking incubator at 200 rpm for 1 minute and absorbances were read at 450 nm using a Biotek H1 Synergy Hybrid Reader (Wanooski, Vt.). […]

[2] = ITC sterol binding, POPC LUVs containing 10% ergosterol
Method: Isothermal Titration calorimetry (ITC)
In an optimized isothermal titration calorimetry (ITC)-based assay, an aqueous solution of AmB was titrated with a suspension of large unilamellar vesicles (LUVs) comprised of only 1-palmitoyl-2-oleoyl-sn-glycero-3-phosphocholine (POPC), and the net exotherm was recorded. The titration was repeated using POPC LUVs containing 10% ergosterol. […] The titration was repeated using C2′epiAmB. […] The ITC assay was also conducted with cholesterol in place of ergosterol.
Experiments were performed using a NanoITC isothermal titration calorimeter (TA Instruments, Wilmington, Del.). Solutions of the compounds to be tested were prepared by diluting a 60.0 mM stock solution of the compound in DMSO to 600 μM with K buffer (5.0 mM HEPES/KHEPES, pH=7.4). The final DMSO concentration in the solution was 1% v/v. Large unilamellar vesicles comprised of only 1-palmitoyl-2-oleoyl-sn-glycero-3-phosphocholine (POPC LUVs) were prepared and phosphorus and ergosterol content was quantified as described below. The LUV solutions were diluted with buffer and DMSO to give a final phospholipid concentration of 12.0 mM in a 1% DMSO/K buffer solution. Immediately prior to use, all solutions were incubated at 37° C. for 30 minutes and degassed under vacuum at 37° C. for 10 minutes. The reference cell of the instrument (volume=0.190 mL) was filled with a solution of 1% v/v DMSO/K buffer.
Palmitoyl oleoyl phosphatidylcholine (POPC) was obtained as a 20 mg/mL solution in CHCl3 from Avanti Polar Lipids (Alabaster, Ala.) and was stored at −20° C. under an atmosphere of dry argon and used within 1 month. […]
Ergosterol content was determined spectrophotometrically. […] The solutions were then analyzed by UV/Vis spectroscopy and the concentration of ergosterol in solution was determined by the extinction coefficient of 10400 L mol^−1 cm^−1 at the UVmax of 282 nm and was compared to the concentration of phosphorus to determine the percent sterol content. The extinction coefficient was determined independently in the above ternary solvent system. […]

[3] = tested on: healthy mice; experiment: Acute toxicity, single intravenous administration, lethality; format: in vivo, mouse
Method: FIG. 8 is a graph depicting lethality in healthy mice resulting from single intravenous administrations in the doses indicated of AmB or C2′epiAmB.
In a separate experiment, acute toxicity was determined by single intravenous administration of AmB or C2′epiAmB to healthy mice, followed by monitoring for lethality.

In the case of `C[C@@H]1[C@H](O)[C@@H](C)/C=C/C=C/C=C/C=C/C=C/C=C/C=C/[C@H](O[C@@H]2O[C@H](C)[C@@H](O)[C@H](N)[C@H]2O)CC2O[C@](O)(C[C@@H](O)C[C@@H](O)[C@H](O)CC[C@@H](O)C[C@@H](O)CC(=O)O[C@H]1C)C[C@H](O)[C@H]2C(=O)O` [C2′epiAmB], the “Toxicity to primary human renal proximal tubule epithelial cells (in words)” value [1] is reported as “no evidence of toxicity up to their limits of solubility”, the Total exotherm ([2]; 10% ergosterol LUVs, 600 μM compound) is reported as -15.24 ± 1.66 µcal and the “Binding to ergosterol (in words)” value ([2]; net exotherm vs sterol-free LUVs) is reported as “binds to ergosterol; also recorded: retained capacity for the epimeric derivative to bind ergosterol”. The Lethality ([3]; healthy mice, single intravenous doses up to 16 mg/kg) was “no deaths observed” and the “Acute toxicity compared to AmB (in words)” value ([3]; mice) was “significantly less toxic; also recorded: substantially less toxic to mice”.
